Experimental data from patent US4340539A, “Derivatives of 6-bromo penicillanic acid” (priority 1980, dated 1982).
Read-outs that look alike come from different tables or passages of the source.

Experiments:
[1] = system: β-lactamase enzyme RTEM; conditions: cited from earlier work
[2] = Storage stability of free acid; type: physicochemical; conditions: 23° C., seven days
[3] = Hygroscopicity; type: physicochemical; conditions: listed as 2β-chloromethyl-2α-methylpenam-3α-carboxylic acid sulfone
[4] = Blood levels after oral administration to mice (Table 4); type: in vivo; conditions: mouse; for concentration at […]: assay organism S. aureus A-9606, read-out: Blood level
[5] = Blood levels and half-life of BL-P2024 after oral administration of various doses to mice (Table 5); type: in vivo; conditions: mouse; for concentration at 0.5 h: 30 min; for concentration at 2 h: 120 min; for concentration at 1 h: 60 min
[6] = system: β-lactamase producing strains of S. aureus; experiment: Therapeutic efficacy of amoxicillin in combinations with BL-P2024 in infected mice (Table 7); type: in vivo; conditions: Staphylococcus aureus, po, read-out: PD50/Treatment
[7] = system: β-lactamase producing strains of E. coli; experiment: as above; type: in vivo; conditions: oral
[8] = in vivo; set-up: species or system mice; conditions: mouse, blood, po, 100 mg/kg, Test 2, oral 100 mg/kg, 60 min; read-out: Blood level
Source text: Compounds prepared in 5% Propylene Glycol & TweenCMC-H2 O.
Values in parentheses are 95% confidence limits.
Assay Organism: E. coli A9675 (pH = 6.6, 0.1% inoculum)

[9] = system: β-lactamase; conditions: cited from earlier work
[10] = system: bacteria; conditions: cited from earlier work
[11] = system: β-lactamase-producing strains; conditions: in vitro and in vivo; cited from earlier work
[12] = oral 25 mg/kg, read-out: Blood level
[13] = oral 50 mg/kg, read-out: Blood level
[14] = oral 100 mg/kg, read-out: Blood level
[15] = oral 200 mg/kg, assay organism S. aureus A9606, read-out: Blood level

## CC1(C)[C@H](C(=O)O)N2C(=O)C(Br)[C@H]2S1(=O)=O (stereo partly drawn) [(2S,5R,6S)-6β-Bromo-3,3-dimethyl-7-oxo-4-thia-1-azabicyclo[3.2.0]heptane-2-carboxylic acid, S,S-dioxide]
[1]
  inhibition of RTEM: inhibit the action of the β-lactamase enzyme RTEM

## CC1(CCl)C(C(=O)O)N2C(=O)CC2S1(=O)=O (stereo not drawn) [BL-P2013 free acid, 2β-chloromethyl-2α-methylpenam-3α-carboxylic acid sulfone]
[2]
  storage stability: unstable
[3]
  hygroscopicity: hygroscopic

## CC(C)(C)C(=O)OCOC(=O)C1N2C(=O)CC2S(=O)(=O)C1(C)CCl (stereo not drawn) [BL-P2024, Pivaloyloxymethyl 2β-Chloromethyl-2α-methylpenam-3α-carboxylate Sulfone]
[4]; 100 mg/kg, oral 100 mg/kg, 15 min
  concentration at […]: 13100 ng/mL
[4]; 100 mg/kg, oral 100 mg/kg, assay organism E. coli A-9675
  half-life: 1.17 h
[4]; 100 mg/kg, oral 100 mg/kg, assay organism S. aureus A-9606
  half-life: 1 h
[4]; 200 mg/kg, oral 200 mg/kg, 150 min
  concentration at […]: > 2500 ng/mL
[4]; 200 mg/kg, oral 200 mg/kg, assay organism S. aureus A-9606
  half-life: 1 h
[5]; oral 25 mg/kg
  half-life: 0.667 h
[5]; oral 25 mg/kg, 15 min, read-out: Blood level
  concentration at […]: 5900 ng/mL
[5]; [12]
  concentration at 0.5 h: 6200 ng/mL
  concentration at 2 h: 1300 ng/mL
[5]; oral 25 mg/kg, 90 min, read-out: Blood level
  concentration at […]: 1900 ng/mL
[5]; oral 25 mg/kg, 150 min, read-out: Blood level
  concentration at […]: 700 ng/mL
[5]; oral 50 mg/kg
  half-life: 1 h
[5]; oral 50 mg/kg, 15 min, read-out: Blood level
  concentration at […]: 7700 ng/mL
[5]; [13]
  concentration at 0.5 h: 9500 ng/mL
  concentration at 1 h: 6300 ng/mL
[5]; oral 50 mg/kg, 90 min, read-out: Blood level
  concentration at […]: 4700 ng/mL
[5]; oral 50 mg/kg, 150 min, read-out: Blood level
  concentration at […]: 2300 ng/mL
[5]; oral 100 mg/kg
  half-life: 1.42 h
[5]; oral 100 mg/kg, 15 min, read-out: Blood level
  concentration at […]: 12300 ng/mL
[5]; [14]
  concentration at 0.5 h: 12200 ng/mL
  concentration at 1 h: 9400 ng/mL
  concentration at 2 h: 5700 ng/mL
[5]; oral 100 mg/kg, 90 min, read-out: Blood level
  concentration at […]: 7200 ng/mL
[5]; oral 100 mg/kg, 150 min, read-out: Blood level
  concentration at […]: 4600 ng/mL
[5]; oral 200 mg/kg, 15 min, assay organism S. aureus A9606, read-out: Blood level
  concentration at […]: 14700 ng/mL
[5]; [15]
  concentration at 0.5 h: 14400 ng/mL
  concentration at 1 h: 9800 ng/mL
  concentration at 2 h: 5100 ng/mL
[5]; oral 200 mg/kg, 90 min, assay organism S. aureus A9606, read-out: Blood level
  concentration at […]: 8700 ng/mL
[5]; oral 200 mg/kg, assay organism S. aureus A9606
  half-life: 1 h
[6]; S. aureus A15091, challenge 5 × 10^8, vehicle TCMC
  ED50: > 200 mg/kg
[6]; S. aureus A20379, challenge 5 × 10^8, vehicle TCMC
  ED50: 200 mg/kg
[7]; E. coli A9675, challenge 6 × 10^5, vehicle TCMC
  PD50/Treatment: > 200 mg/kg
[7]; E. coli A9675, challenge 7 × 10^5, vehicle 50% DMSO
  PD50/Treatment: > 25 mg/kg
[7]; E. coli A9675, challenge 7 × 10^5, vehicle TCMC
  PD50/Treatment: > 25 mg/kg
[7]; E. coli A9675, challenge 9 × 10^5, vehicle 50% DMSO
  PD50/Treatment: > 25 mg/kg
[8]
  concentration at 1 h: 7800 ng/mL

## CC1(C)[C@H](C(=O)O)N2C(=O)C[C@H]2S1(=O)=O [CP-45899]
[9]
  β-lactamase inhibition: irreversibly acting β-lactamase inhibitor
[10]
  antibacterial activity: weak antibacterial activity
[11]
  potentiation of ampicillin: potentiates the in vitro and in vivo activities of ampicillin
